Experimental data published in patent US7960339B2, “Antimicrobial peptides” (Österreichische Akademie der Wissenschaften, priority 2006, dated 2011).
Peptide text beside a SMILES is read from it. * marks the point of attachment. Dicyclohexylacetyl = O=C(C(C1CCCCC1)C1CCCCC1)*; Octanoyl(6-Me) = CCC(C)CCCCC(=O)*; Octanoyl = CCCCCCCC(=O)*; X1 = CCCCC(CC)C(=O)*

Tested on: C. neoformans ATCC 32045
Assay type: cell-based
Settings: ATCC 32045, 72 h
Experimental: C. neoformans ATCC 32045 cultures were maintained on yeast medium (YM; Difco Laboratories, Detroit, Mich.) agar plates at 4° C. Prior to the assay, the cultures were grown on agar plates and incubated for 72 hrs at 26° C. Two colonies of these newly grown fungal cultures were then inoculated in 5 ml of 2×YM broth, vortexed, and diluted 10-fold in 2×YM broth, for an approximate final assay concentration of 1×105 to 5×10^5 CFU/ml. In 96-well tissue culture plates, fungal suspensions in 2×YM broth were added to the peptides dispensed at concentrations ranging from 1 mg/ml to 1 μg/ml derived from serial twofold dilutions in sterile water. The plates were then incubated for 72 hrs at 26° C. The relative percent growth of the fungi found for each test sample was determined by the optical density at 620 nm (OD620) by using a Titertek Multiskan Plus apparatus. […] The IC50 were calculated by using a sigmoidal curve-fitting software program (Graphpad Prism; ISI Software, San Diego, Calif.).

Row | Structure (SMILES) | average IC50 [µg/mL] | average MIC [µg/mL]
1 | CC[C@H](C)[C@H](NC(=O)[C@H](CC(N)=O)NC(=O)[C@H](CCCNC(=N)N)NC(=O)[C@H](Cc1c[nH]c2ccccc12)NC(=O)[C@@H](N)Cc1ccccc1)C(=O)N[C@@H](CCCNC(=N)N)C(=O)N[C@@H](CCCCN)C(=O)N[C@@H](Cc1c[nH]c2ccccc12)C(=O)N[C@@H](CCCNC(=N)N)C(N)=O [VS1-20, FWRNIRKWR-NH2] (H-FWRNIRKWR-NH2; N-terminus assumed) | 4 | 16
2 | CC[C@H](C)[C@H](NC(=O)[C@H](CCCNC(=N)N)NC(=O)[C@H](CCCCN)NC(=O)[C@H](Cc1c[nH]c2ccccc12)NC(=O)[C@@H](N)CCCNC(=N)N)C(=O)N[C@@H](CC(N)=O)C(=O)N[C@@H](CCCNC(=N)N)C(=O)N[C@@H](CCC(N)=O)C(=O)N[C@@H](Cc1c[nH]c2ccccc12)C(=O)N[C@@H](Cc1ccccc1)C(N)=O [VS1-16, RWKRINRQWF-NH2] (H-RWKRINRQWF-NH2; N-terminus assumed) | 13 | 32
3 | CC[C@H](C)[C@H](NC(=O)[C@H](CCCNC(=N)N)NC(=O)[C@@H](NC(=O)[C@H](CCCNC(=N)N)NC(=O)[C@H](Cc1c[nH]c2ccccc12)NC(=O)[C@H](Cc1ccccc1)NC(=O)[C@H](Cc1ccccc1)NC(=O)[C@@H]1CCCN1)[C@@H](C)CC)C(=O)N[C@@H](CCCNC(=N)N)C(=O)N[C@@H](CCCNC(=N)N)C(N)=O [VS1-24, PFFWRIRIRR-NH2] (H-PFFWRIRIRR-NH2; N-terminus assumed) | 3 | 8
4 | CC[C@H](C)[C@H](NC(=O)[C@H](CCCNC(=N)N)NC(=O)[C@@H](NC(=O)[C@H](CCCNC(=N)N)NC(=O)[C@@H](N)CCCNC(=N)N)[C@@H](C)CC)C(=O)N[C@@H](CC(N)=O)C(=O)N[C@@H](CCCNC(=N)N)C(=O)N[C@@H](CCC(N)=O)C(=O)N[C@@H](Cc1c[nH]c2ccccc12)C(=O)N[C@@H](Cc1ccccc1)C(N)=O [VS1-14, RRIRINRQWF-NH2] (H-RRIRINRQWF-NH2; N-terminus assumed) | 12 | 32
5 | CCCCCCCC(=O)N1CCC[C@H]1C(=O)N[C@@H](Cc1ccccc1)C(=O)N[C@@H](Cc1c[nH]c2ccccc12)C(=O)N[C@@H](CCCNC(=N)N)C(=O)N[C@H](C(=O)N[C@@H](CCCNC(=N)N)C(=O)N[C@H](C(=O)N[C@@H](CCCNC(=N)N)C(=O)N[C@@H](CCCNC(=N)N)C(N)=O)[C@@H](C)CC)[C@@H](C)CC [VS1-50, octanoyl PFWRIRIRR-NH2] (Octanoyl-PFWRIRIRR-NH2) | 6 | 16
6 | CC[C@H](C)[C@H](NC(=O)[C@H](CCCNC(=N)N)NC(=O)[C@H](CCCCN)NC(=O)[C@H](Cc1c[nH]c2ccccc12)NC(=O)[C@H](CCCNC(=N)N)NC(=O)C(C1CCCCC1)C1CCCCC1)C(=O)N[C@@H](CC(N)=O)C(=O)N[C@@H](CCCNC(=N)N)C(=O)N[C@@H](CCC(N)=O)C(=O)N[C@@H](Cc1c[nH]c2ccccc12)C(=O)N[C@@H](Cc1ccccc1)C(N)=O [VS1-49, dicyclohexylacetyl RWKRINRQWF-NH2] (Dicyclohexylacetyl-RWKRINRQWF-NH2) | 2 | 4
7 | CC[C@H](C)[C@H](NC(=O)[C@H](CCCNC(=N)N)NC(=O)[C@@H](NC(=O)[C@H](CCCNC(=N)N)NC(=O)[C@H](Cc1c[nH]c2ccccc12)NC(=O)[C@H](Cc1ccccc1)NC(=O)C(C1CCCCC1)C1CCCCC1)[C@@H](C)CC)C(=O)N[C@@H](CCCNC(=N)N)C(=O)N[C@@H](CCCNC(=N)N)C(N)=O [VS1-59, dicyclohexylacetyl FWRIRIRR-NH2] (Dicyclohexylacetyl-FWRIRIRR-NH2) | 14 | 62
8 | CC[C@H](C)[C@H](NC(=O)[C@H](CCCNC(=N)N)NC(=O)[C@H](CCCNC(=N)N)NC(=O)[C@H](Cc1c[nH]c2ccccc12)NC(=O)[C@@H]1CCCN1)C(=O)N[C@@H](CCCNC(=N)N)C(=O)N[C@@H](CCCNC(=N)N)C(N)=O [VS1-35, PWRRIRR-NH2] (H-PWRRIRR-NH2; N-terminus assumed) | 12 | 32
9 | CCCCCCCC(=O)N[C@@H](Cc1ccccc1)C(=O)N[C@@H](Cc1c[nH]c2ccccc12)C(=O)N[C@@H](CCCNC(=N)N)C(=O)N[C@H](C(=O)N[C@@H](CCCNC(=N)N)C(=O)N[C@H](C(=O)N[C@@H](CCCNC(=N)N)C(=O)N[C@@H](CCCNC(=N)N)C(N)=O)[C@@H](C)CC)[C@@H](C)CC [VS1-55, octanoyl FWRIRIRR-NH2] (Octanoyl-FWRIRIRR-NH2) | 4 | 16
10 | CCCCC(CC)C(=O)N[C@@H](Cc1ccccc1)C(=O)N[C@@H](Cc1c[nH]c2ccccc12)C(=O)N[C@@H](CCC(N)=O)C(=O)N[C@@H](CCCNC(=N)N)C(=O)N[C@@H](CC(N)=O)C(=O)N[C@H](C(=O)N[C@@H](CCCNC(=N)N)C(=O)N[C@@H](CCCCN)C(=O)N[C@@H](Cc1c[nH]c2ccccc12)C(=O)N[C@@H](CCCNC(=N)N)C(N)=O)[C@@H](C)CC (some centres unmarked) [VS1-41, 2-ethylhexanoyl FWQRNIRKWR-NH2] (X1-FWQRNIRKWR-NH2) | 4 | 8
11 | CCC(C)CCCCC(=O)N[C@@H](CCCNC(=N)N)C(=O)N[C@@H](Cc1c[nH]c2ccccc12)C(=O)N[C@@H](CCCCN)C(=O)N[C@@H](CCCNC(=N)N)C(=O)N[C@H](C(=O)N[C@@H](CC(N)=O)C(=O)N[C@@H](CCCNC(=N)N)C(=O)N[C@@H](CCC(N)=O)C(=O)N[C@@H](Cc1c[nH]c2ccccc12)C(=O)N[C@@H](Cc1ccccc1)C(N)=O)[C@@H](C)CC (some centres unmarked) [VS1-48, 6-methyloctanoyl RWKRINRQWF-NH2] ({Octanoyl(6-Me)}-RWKRINRQWF-NH2) | 2 | 8
12 | CC[C@H](C)[C@H](NC(=O)[C@H](CCCNC(=N)N)NC(=O)[C@H](CCCNC(=N)N)NC(=O)[C@H](CCCNC(=N)N)NC(=O)[C@H](Cc1c[nH]c2ccccc12)NC(=O)[C@H](Cc1ccccc1)NC(=O)[C@@H]1CCCN1)C(=O)N[C@@H](CCCNC(=N)N)C(=O)N[C@@H](CCCNC(=N)N)C(N)=O [VS1-32, PFWRRRIRR-NH2] (H-PFWRRRIRR-NH2; N-terminus assumed) | 9 | 32
13 | CC[C@H](C)[C@H](NC(=O)[C@H](CCCNC(=N)N)NC(=O)[C@H](CCC(N)=O)NC(=O)[C@H](CCCNC(=N)N)NC(=O)[C@H](Cc1c[nH]c2ccccc12)NC(=O)[C@H](Cc1ccccc1)NC(=O)[C@@H]1CCCN1)C(=O)N[C@@H](CCCNC(=N)N)C(=O)N[C@@H](CCCNC(=N)N)C(N)=O [VS1-25, PFWRQRIRR-NH2] (H-PFWRQRIRR-NH2; N-terminus assumed) | 6 | 32
14 | CC[C@H](C)[C@H](NC(=O)[C@H](CCCCN)NC(=O)[C@H](CCCNC(=N)N)NC(=O)[C@H](CCCNC(=N)N)NC(=O)[C@H](Cc1c[nH]c2ccccc12)NC(=O)[C@@H]1CCCN1)C(=O)N[C@@H](CCCNC(=N)N)C(=O)N[C@@H](CCCNC(=N)N)C(N)=O [VS1-36, PWRRKIRR-NH2] (H-PWRRKIRR-NH2; N-terminus assumed) | 11 | 62
15 | CCC(C)CCCCC(=O)N[C@@H](Cc1ccccc1)C(=O)N[C@@H](Cc1c[nH]c2ccccc12)C(=O)N[C@@H](CCCNC(=N)N)C(=O)N[C@@H](CCCNC(=N)N)C(=O)N[C@@H](Cc1ccccc1)C(=O)N[C@@H](Cc1c[nH]c2ccccc12)C(=O)N[C@@H](CCCNC(=N)N)C(=O)N[C@@H](CCCNC(=N)N)C(N)=O (some centres unmarked) [VS1-63, 6-methyloctanoyl FWRRFWRR-NH2] ({Octanoyl(6-Me)}-FWRRFWRR-NH2) | 11 | 62
16 | CCCCC(CC)C(=O)N1CCC[C@H]1C(=O)N[C@@H](Cc1ccccc1)C(=O)N[C@@H](Cc1c[nH]c2ccccc12)C(=O)N[C@@H](CCCNC(=N)N)C(=O)N[C@H](C(=O)N[C@@H](CCCNC(=N)N)C(=O)N[C@H](C(=O)N[C@@H](CCCNC(=N)N)C(=O)N[C@@H](CCCNC(=N)N)C(N)=O)[C@@H](C)CC)[C@@H](C)CC (some centres unmarked) [VS1-51, 2-ethylhexanoyl PFWRIRIRR-NH2] (X1-PFWRIRIRR-NH2) | 3 | 8
17 | CCCCC(CC)C(=O)N[C@@H](Cc1ccccc1)C(=O)N[C@@H](Cc1c[nH]c2ccccc12)C(=O)N[C@@H](CCCNC(=N)N)C(=O)N[C@H](C(=O)N[C@@H](CCCNC(=N)N)C(=O)N[C@H](C(=O)N[C@@H](CCCNC(=N)N)C(=O)N[C@@H](CCCNC(=N)N)C(N)=O)[C@@H](C)CC)[C@@H](C)CC (some centres unmarked) [VS1-56, 2-ethylhexanoyl FWRIRIRR-NH2] (X1-FWRIRIRR-NH2) | 3 | 16
18 | CC[C@H](C)[C@H](NC(=O)[C@H](CCCNC(=N)N)NC(=O)[C@H](CCCNC(=N)N)NC(=O)[C@H](CCC(N)=O)NC(=O)[C@H](Cc1c[nH]c2ccccc12)NC(=O)[C@@H](N)Cc1ccccc1)C(=O)N[C@@H](CCCNC(=N)N)C(=O)N[C@@H](CCCCN)C(=O)N[C@@H](Cc1c[nH]c2ccccc12)C(=O)N[C@@H](CCCNC(=N)N)C(N)=O [VS1-17, FWQRRIRKWR-NH2] (H-FWQRRIRKWR-NH2; N-terminus assumed) | 5 | 32
19 | CCCCCCCC(=O)N[C@@H](Cc1ccccc1)C(=O)N[C@@H](Cc1c[nH]c2ccccc12)C(=O)N[C@@H](CCC(N)=O)C(=O)N[C@@H](CCCNC(=N)N)C(=O)N[C@@H](CC(N)=O)C(=O)N[C@H](C(=O)N[C@@H](CCCNC(=N)N)C(=O)N[C@@H](CCCCN)C(=O)N[C@@H](Cc1c[nH]c2ccccc12)C(=O)N[C@@H](CCCNC(=N)N)C(N)=O)[C@@H](C)CC [VS1-40, octanoyl FWQRNIRKWR-NH2] (Octanoyl-FWQRNIRKWR-NH2) | 2 | 8
